In the METLIN SMRT retention time set (Domingo-Almenara et al. 2019):

test: gradient 5% acetonitrile 3 min, to 50% in 2 min, to 85% in 15 min, held 3 min, 100 µL/min; conditions: column: Zorbax Extend-C18 2.1 x 50 mm; eluents: water / acetonitrile, 0.1% formic acid
Outline: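 Standards, all pure, were combined into mixtures of ~100 molecules and run at 100 μL/min on a Zorbax Extend-C18 column (2.1 × 50 mm, 1.8 μm) with water and acetonitrile, each containing 0.1% formic acid. A coupled quadrupole time-of-flight mass spectrometer operated in positive and negative ionization mode. Retention time values come from computationally picked adduct peaks, each inspected manually.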

First: CCCC(=O)Nc1ccc2c(c1)nc(CN1CCCC1)n2C(C)C
Second: CC(C)CN1CCn2cc(C(=O)NCc3ccc(F)cc3Cl)nc2C1
The RP-LC retention time of the first is lower: 586 s for the first, 646 s for the second.

Going from `O=C(CSc1nc(-c2ccccc2)ns1)Nc1nc2ccccc2s1` to `CCC(=O)Nc1nc(-c2ccccc2)cs1`, the RP-LC retention time falls from 1000 s to 836 s.

First: O=C(c1ccc(Cl)c(Cl)c1)N1CCC2(CC1)OCCS2
Second: CC(C)NC(=O)c1ccc(OCC2CCN(C(=O)c3ccc(F)c(Cl)c3)CC2)cc1
The RP-LC retention time of the first is lower: 890 s for the first, 922 s for the second.

First: Cc1cccc(N2CCN(c3cc(C(=O)O)c4cc(NC(=O)C5CCCC5)ccc4n3)CC2)c1C
Second: CCCN1CCN(c2cc(C(=O)O)c3cc(NC(=O)c4ccc(Br)cc4)ccc3n2)CC1
The RP-LC retention time of the first is higher: 799 s for the first, 628 s for the second.

Going from `CCOCc1nc(C2CCCN(C(=O)NC(C)C)C2)no1` (centres undefined) to `CN1CC=C(c2noc(CCC(=O)N3CCC(c4ccccc4)C3)n2)CC1` (centres undefined), the RP-LC retention time falls from 704 s to 631 s.

Compared with `O=C(Nc1nc(-c2ccccc2)cs1)c1c(-c2ccc(Cl)cc2)nc2n1CCS2(=O)=O`, `COc1cc(C(=O)Nc2nc(-c3ccc(Cl)cc3)cs2)cc(OC)c1OC` is higher in RP-LC retention time: 1080 s for the first, 1120 s for the second.

First: Cc1ccc2[nH]cc(CCNC(=O)c3cc(-c4ccccn4)nc4ccccc34)c2c1
Second: O=c1c(NCCc2ccccn2)nc2ccncc2n1Cc1ccccc1
The RP-LC retention time of the first is higher: 902 s for the first, 551 s for the second.

First: CCOC(=O)C(Cc1ccc(O)cc1)Nc1nc2ccccc2o1 (centres undefined)
Second: COc1ccc(CN2C=C(C(=O)OCc3ccccc3Cl)C(C)=NS2(=O)=O)cc1
The RP-LC retention time of the first is lower: 846 s for the first, 1170 s for the second.

Compared with `CCCNC(=O)C1CCN(c2ccc(SCC(=O)Nc3cc(F)ccc3Cl)nn2)CC1`, `COc1ccc(N2CCN(c3cc(SCC(=O)Nc4ccc(F)cc4F)ncn3)CC2)cc1` is higher in RP-LC retention time: 724 s for the first, 1050 s for the second.

Going from `CCn1ccc2cc(S(=O)(=O)N3CCCC(C(=O)NCCCN(C)Cc4ccccc4)C3)ccc21` (centres undefined) to `COc1ccc(S(=O)(=O)N2CCCC(C(=O)NCCCOC(C)C)C2)cc1C` (centres undefined), the RP-LC retention time rises from 715 s to 877 s.

Compared with `O=C(NCc1cccs1)c1ccc2c(c1)OCCCO2`, `O=C(Nc1ccc2c(c1)OCCO2)c1cc2nc(N3CCCCC3)sc2s1` is higher in RP-LC retention time: 791 s for the first, 1010 s for the second.

First: c1ccc2c(N3CCNCC3)cccc2c1
Second: COc1cccc(OCC(=O)N2CC(=O)Nc3ccccc32)c1
The RP-LC retention time of the first is lower: 690 s for the first, 869 s for the second.

Compared with `O=C(c1ccccc1)N1CCC(CCNS(=O)(=O)Cc2ccccc2)CC1`, `CC1(C(=O)NCc2ccccc2)CCN(C(=O)Nc2cccc(C(F)(F)F)c2)CC1` is higher in RP-LC retention time: 803 s for the first, 919 s for the second.

First: Cc1cc2n(n1)CCC(=O)N2CCCC(=O)N1CCN(C(=O)c2ccco2)CC1
Second: CN(Cc1nc2ccccc2n1CC(=O)N1CCOCC1)C(=O)c1ccco1
The RP-LC retention time of the first is higher: 604 s for the first, 587 s for the second.

`O=c1c2ccccc2n(Cc2nc(-c3cccc(C(F)(F)F)c3)no2)c(=O)n1CC1CCCO1` (centres undefined) and `O=S(=O)(NCc1nc(-c2ccc(-c3csc(C4CC4)n3)cc2)no1)c1ccccc1` are the same in RP-LC retention time: 1100 s for the first, 1100 s for the second.

First: Cc1ccc(NC(=O)N2CCc3[nH]cnc3C2c2ccncc2)cc1C (centres undefined)
Second: O=C(COc1ccccc1)N1CCC(c2noc(-c3ccncc3)n2)C1 (centres undefined)
The RP-LC retention time of the first is lower: 582 s for the first, 737 s for the second.

Going from `CC(=O)N1CCc2[nH]c3ccc(C(=O)NCc4ccc(N5CCOCC5)cc4)cc3c2C1` to `CCc1cc(=O)n(CC(=O)NCc2ccc(F)cc2Cl)c(N2CCOCC2)n1`, the RP-LC retention time rises from 635 s to 749 s.

First: COc1ccc(CCNC(=O)C2CCCN(c3ncnc4c3nc3n4CCCCC3)C2)c(OC)c1 (centres undefined)
Second: O=C(NC1CCCCCCC1)c1nnc(-c2ccc(S(=O)(=O)N3CCCC3)cc2)o1
The RP-LC retention time of the first is lower: 778 s for the first, 1070 s for the second.

Going from `COc1ccccc1C(=O)N1CC(Oc2cccc(-c3nc(-c4ccccc4)no3)c2)C1` to `COc1ccccc1NC(=O)c1cccc(N2CCNC(c3ccccc3)C2)n1` (centres undefined), the RP-LC retention time falls from 1130 s to 693 s.

Compared with `COc1ccc(C(=O)Nc2nnc(SCc3nnc(-c4ccccc4C)o3)s2)cc1`, `COc1ccc(-c2nnc(COc3ccc(NC(=O)c4ccnn4C)cc3)o2)cc1` is lower in RP-LC retention time: 966 s for the first, 790 s for the second.

Going from `CCC(=O)Nc1ccc(CCc2nc3ccc(C(=O)NC(c4cccs4)C(C)C)cc3[nH]2)cc1` (centres undefined) to `CC(=O)c1ccc(NC(=O)CC2COc3ccccc3NC2=O)cc1` (centres undefined), the RP-LC retention time falls from 702 s to 677 s.

Compared with `CCN1CCCn2cc(S(=O)(=O)Nc3cc(C)cc(C)c3)cc2C1=O`, `Cc1oc(-c2[nH]ncc2C(=O)N2CCCCC2)cc1S(=O)(=O)Nc1ccc(Cl)cc1` is higher in RP-LC retention time: 768 s for the first, 799 s for the second.

Compared with `O=C(Nc1cccc2c1N(C(=O)c1ccco1)CCC2)c1ccco1`, `CCOc1ccccc1NC(=O)N1CCCC(C)(C(=O)NCc2cccc(OC)c2)C1` (centres undefined) is higher in RP-LC retention time: 784 s for the first, 958 s for the second.

Compared with `O=C(Cn1cc(C(=O)c2ccccc2)c(=O)c2cc(F)ccc21)Nc1ccc2c(c1)OCO2`, `Cc1cc(OCC(=O)Nc2ccccc2C#N)nc(-c2ccc(F)cc2)n1` is higher in RP-LC retention time: 836 s for the first, 964 s for the second.

Compared with `CCn1cnc(S(=O)(=O)N2CCCC(C(=O)NC3CCCCCC3)C2)c1` (centres undefined), `Cc1cnc(CC2CCN(S(=O)(=O)c3ccc(C#N)cc3)C2)n1C1CC1` (centres undefined) is lower in RP-LC retention time: 740 s for the first, 654 s for the second.

Going from `Cc1noc(C)c1CC(=O)NCC12CCC=C1NC(=O)CC2` (centres undefined) to `Cc1cccc(NC(=O)Cn2c(C)nc(C)c(C)c2=O)c1`, the RP-LC retention time rises from 632 s to 658 s.

Compared with `Cc1ccc(-c2noc(C3CCCN3S(=O)(=O)c3ccc(C(C)C)cc3)n2)cc1` (centres undefined), `O=S(=O)(c1ccc(Br)cc1)N1CCc2nc(-c3ccccc3)ncc2C1` is lower in RP-LC retention time: 1310 s for the first, 1120 s for the second.

Compared with `CN(C)c1ccc(-c2nc3cnccn3c2Nc2ccc(Br)cc2)cc1`, `CC1CCN(C(=O)CCNc2c(-c3ccc(F)cc3)nc3cnccn23)CC1` is lower in RP-LC retention time: 894 s for the first, 794 s for the second.

First: CC(C)CCNC(=O)C1(C)Cn2nc(C(=O)NCc3ccc(F)cc3)cc2C(=O)N1C (centres undefined)
Second: Cc1cc(C(=O)NCc2ccc(N(C)C)cc2)c2c(=O)n(C)c(=O)n(C)c2n1
The RP-LC retention time of the first is higher: 727 s for the first, 578 s for the second.

Compared with `CCc1sc(N)nc1-c1ccc(OC)cc1`, `CCOc1ccc(-c2nc(NC(=O)Cc3csc(C)n3)sc2C)cc1` is higher in RP-LC retention time: 668 s for the first, 938 s for the second.

First: COc1ccc(-c2ccnn2-c2ccc(SCC(=O)Nc3cc(C)ccc3C)nn2)cc1
Second: COc1ccc(NC(=O)c2cc3c(=O)n(CC(C)C)c4ccccc4n3n2)c(OC)c1
The RP-LC retention time of the first is lower: 1140 s for the first, 1180 s for the second.

First: Cc1ccc(F)cc1S(=O)(=O)N1CCC(C2CCNC2)CC1 (centres undefined)
Second: Cc1ccc(-c2nnc(-c3ccccc3)o2)cc1S(=O)(=O)N1CCCC1
The RP-LC retention time of the first is lower: 651 s for the first, 1020 s for the second.

Compared with `CCOC(=O)c1[nH]c(C)c(CCC(=O)N2CCC(C(=O)NCCCN3CCCCC3)CC2)c1C`, `Cc1[nH]c(C(=O)N2CCC(CC(=O)NCc3cccc(Cl)c3)CC2)c(C)c1C(=O)OC(C)C` is higher in RP-LC retention time: 607 s for the first, 868 s for the second.

Compared with `Cc1sc(-c2nnc(C(C)C)o2)cc1NC(=O)C1CCC1`, `CC(C)c1noc(C2(NC(=O)c3ccc(Cl)cc3)CCCCC2)n1` is higher in RP-LC retention time: 892 s for the first, 1100 s for the second.

Going from `COc1cc(CCNCc2c(C(=O)O)n(C)c3ccccc23)cc(OC)c1OC` to `COc1ccc(OC)c2sc(N(CCN(C)C)C(=O)c3nc4ccccc4s3)nc12`, the RP-LC retention time rises from 656 s to 715 s.

Compared with `N#Cc1cccc(C(=O)NC2CCN(c3cc(-c4ccc(Cl)cc4)[nH]n3)C2)c1` (centres undefined), `NC(=O)COc1cc(-c2cccc(Cl)c2)nc2ccc(NC(=O)C3CC3)cc12` is lower in RP-LC retention time: 728 s for the first, 667 s for the second.

First: O=C(CC1CCCC1)N1CCN(CCn2cccn2)CC1
Second: CC1CCC(NC(=O)c2sc3ncccc3c2-n2cccc2)CC1 (centres undefined)
The RP-LC retention time of the first is lower: 560 s for the first, 1200 s for the second.

First: O=C(NCc1ccc(Br)cc1)c1cn2c(n1)CCCC2
Second: Cc1ccc(NC(=O)CC2SC3=NCCN3C2=O)cc1 (centres undefined)
The RP-LC retention time of the first is higher: 633 s for the first, 578 s for the second.

Compared with `CCc1nnc2ccc(-c3noc(Cc4cc(OC)cc(OC)c4)n3)cn12`, `COc1ccc(-c2cc(C(=O)Nc3cc(F)cc(F)c3)sn2)cc1` is higher in RP-LC retention time: 844 s for the first, 1200 s for the second.

Compared with `O=S(=O)(c1cccc(-c2nnc(-c3ccc(F)cc3)o2)c1)N1CCCCCC1`, `CCS(=O)(=O)N1[C@H]2CC[C@@H]1c1cnc(-c3ccc(F)cc3)nc1C2` is lower in RP-LC retention time: 1110 s for the first, 945 s for the second.

Going from `Cc1ccc(C(=O)N2C[C@@H]3C[C@H]2C[C@@H]3NS(=O)(=O)c2cccnc2)cc1F` to `O=C(c1cc(F)cc(F)c1)N1CCCC(c2ccnc(-c3cccc(F)c3)n2)C1` (centres undefined), the RP-LC retention time rises from 716 s to 1120 s.

First: COc1ccc(-c2nn(-c3ccccc3)cc2C2NC(=O)NC(C)=C2C(=O)OC(C)C)cc1 (centres undefined)
Second: COC(=O)c1c(C)[nH]c(C(=O)N2CCC(CC(=O)NCc3ccc(OC(C)C)cc3)CC2)c1C
The RP-LC retention time of the first is higher: 906 s for the first, 812 s for the second.

Compared with `CNc1nc(Nc2ccc(F)cc2)nc2ccccc12`, `O=C(Nc1cc(F)cc(F)c1)Nc1cccc(-c2nccnc2N2CCOCC2)c1` is higher in RP-LC retention time: 655 s for the first, 940 s for the second.

First: CCOc1cc(CNc2ccc3[nH]c(=O)[nH]c3c2)cc(Br)c1OCC
Second: CC(C)(C)n1nc2c(c1-n1cccc1)CN(C(=O)C1COc3ccccc3O1)C2 (centres undefined)
The RP-LC retention time of the first is lower: 717 s for the first, 1050 s for the second.

In the case of `O=C1CN(CCc2cccs2)C2CS(=O)(=O)CC2N1c1ccc(Cl)cc1` (centres undefined), the RP-LC retention time was 790 s.
